Laboratory results published in patent US11919888B2, “Neprilysin inhibitors” (THERAVANCE BIOPHARMA R&D IP, LLC, priority 2012, dated 2024).

target: T1, human NEP (Homo sapiens, UniProt P08473); test: In vitro enzyme inhibition assay at human NEP (fluorogenic peptide substrate); assay type: biochemical; conditions: recombinant human NEP; 10 μM fluorogenic substrate Mca-D-Arg-Arg-Leu-Dap-(Dnp)-OH; 37° C.; 30 minute preincubation; read-out: pKi value at human NEP (converted)
T1 construct: purchased R&D Systems, Minneapolis, MN 1182-ZN
Procedure: In Vitro Assays for the Quantitation of Inhibitor Potencies (IC50) at Human and Rat NEP, and Human ACE
The inhibitory activities of compounds at human and rat neprilysin (EC 3.4.24.11; NEP) and human angiotensin converting enzyme (ACE) were determined using in vitro assays as described below.
Recombinant human NEP and recombinant human ACE were obtained commercially (R&D Systems, Minneapolis, MN, catalog numbers 1182-ZN and 929-ZN, respectively). The fluorogenic peptide substrate Mca-D-Arg-Arg-Leu-Dap-(Dnp)-OH (Medeiros et al. (1997) Braz. J. Med. Biol. Res. 30:1157-62; Anaspec, San Jose, CA) and Abz-Phe-Arg-Lys(Dnp)-Pro-OH (Araujo et al. (2000) Biochemistry 39:8519-8525; Bachem, Torrance, CA) were used in the NEP and ACE assays respectively.
The assays were performed in 384-well white opaque plates at 37° C. using the fluorogenic peptide substrates at a concentration of 10 μM in Assay Buffer (NEP: 50 mM HEPES, pH 7.5, 100 mM NaCl, 0.01% polyethylene glycol sorbitan monolaurate (Tween-20), 10 μM ZnSO4; ACE: 50 mM HEPES, pH 7.5, 100 mM NaCl, 0.01% Tween-20, 1 μM ZnSO4).
Test compounds were assayed over the range of concentrations from 10 μM to 20 pM. Test compounds were added to the enzymes and incubated for 30 minute at 37° C. prior to initiating the reaction by the addition of substrate. Reactions were terminated after 20 minutes of incubation at 37° C. by the addition of glacial acetic acid to a final concentration of 3.6% (v/v).
Plates were read on a fluorometer with excitation and emission wavelengths set to 320 nm and 405 nm, respectively. Inhibition constants were obtained by nonlinear regression of the data using the equation (GraphPad Software, Inc., San Diego, CA): ν=ν0/[1+(I/K′)] where ν is the reaction rate, ν0 is the uninhibited reaction rate, I is the inhibitor concentration and K′ is the apparent inhibition constant.

T1 sequence (P08473 52-750 limits assumed): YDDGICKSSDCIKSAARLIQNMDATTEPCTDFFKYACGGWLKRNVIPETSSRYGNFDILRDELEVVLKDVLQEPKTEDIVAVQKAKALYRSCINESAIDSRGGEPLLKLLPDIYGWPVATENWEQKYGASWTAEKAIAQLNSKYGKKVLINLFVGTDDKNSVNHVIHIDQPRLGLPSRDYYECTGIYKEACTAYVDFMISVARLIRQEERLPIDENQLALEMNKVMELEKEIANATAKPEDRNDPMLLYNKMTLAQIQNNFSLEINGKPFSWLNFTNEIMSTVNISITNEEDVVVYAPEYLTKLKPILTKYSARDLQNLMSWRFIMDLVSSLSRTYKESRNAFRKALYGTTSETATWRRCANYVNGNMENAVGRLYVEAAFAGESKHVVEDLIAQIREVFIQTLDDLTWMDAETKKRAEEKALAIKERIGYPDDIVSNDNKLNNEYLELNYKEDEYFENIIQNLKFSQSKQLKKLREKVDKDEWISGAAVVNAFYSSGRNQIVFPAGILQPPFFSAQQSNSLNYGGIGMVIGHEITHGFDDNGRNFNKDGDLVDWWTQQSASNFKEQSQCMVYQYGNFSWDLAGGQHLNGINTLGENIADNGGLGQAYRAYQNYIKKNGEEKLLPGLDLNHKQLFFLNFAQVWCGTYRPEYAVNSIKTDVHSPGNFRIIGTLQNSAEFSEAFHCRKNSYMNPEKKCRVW

| Compound | Ki [nM] |
| --- | --- |
| C[C@@](CO)(C[C@@H](Cc1ccc(-c2cccc(Cl)c2)cc1)NC(=O)c1c[nH]nn1)C(=O)O [Example 2D, (2S,4R)-5-(3′-Chlorobiphenyl-4-yl)-2-hydroxymethyl-2-methyl-4-[(1H-[1,2,3]triazole-4-carbonyl)amino]pentanoic Acid] | ≤ 1 |
| C[C@@](CO)(C[C@@H](Cc1ccc(-c2cccc(C#N)c2)cc1)NC(=O)c1c[nH]nn1)C(=O)O [Example 2H, (2S,4R)-5-(3′-Cyanobiphenyl-4-yl)-2-hydroxymethyl-2-methyl-4-[(1H-[1,2,3]triazole-4-carbonyl)amino]pentanoic Acid] | 3.16 to 10 |
| CCOc1cc(C(=O)N[C@H](Cc2ccc(-c3cc(Cl)ccc3F)cc2)C[C@@](C)(COC)C(=O)O)[nH]n1 [Example 7D, (2S,4R)-5-(5′-Chloro-2′-fluorobiphenyl-4-yl)-4-[(5-ethoxy-2H-pyrazole-3-carbonyl)-amino]-2-methoxymethyl-2-methylpentanoic Acid] | 1 to 3.16 |
| CCOC[C@](C)(C[C@@H](Cc1ccc(-c2cc(Cl)ccc2F)cc1)NC(=O)c1cc(O)no1)C(=O)O [Example 6N, (2S,4R)-5-(5′-Chloro-2′-fluorobiphenyl-4-yl)-2-ethoxymethyl-4-[(3-hydroxyisoxazole-5-carbonyl)amino]-2-methylpentanoic Acid] | ≤ 1 |
| COC[C@](C)(C[C@@H](Cc1ccc(-c2cc(Cl)ccc2F)cc1)NC(=O)c1cc(O)no1)C(=O)O [Example 6K, (2S,4R)-5-(5′-Chloro-2′-fluorobiphenyl-4-yl)-4-[(3-hydroxyisoxazole-5-carbonyl)amino]-2-methoxymethyl-2-methylpentanoic Acid] | 1 to 3.16 |
| CC(=O)OC[C@](C)(C[C@@H](Cc1ccc(-c2ccccc2)cc1)NC(=O)c1cnn[nH]1)C(=O)O [Example 1D, (2S,4R)-2-Acetoxymethyl-5-biphenyl-4-yl-2-methyl-4-[(3H-[1,2,3]triazole-4-carbonyl)amino]pentanoic Acid] | ≤ 1 |
| Cc1ccccc1-c1ccc(C[C@H](C[C@@](C)(CO)C(=O)O)NC(=O)c2c[nH]nn2)cc1 [Example 2C, (2S,4R)-2-Hydroxymethyl-2-methyl-5-(2′-methylbiphenyl-4-yl)-4-[(1H-[1,2,3]triazole-4-carbonyl)amino]pentanoic Acid] | ≤ 1 |
| CCOn1cc(C(=O)N[C@H](Cc2ccc(-c3cc(Cl)ccc3F)cc2)C[C@@](C)(CO)C(=O)O)nn1 [Example 4C, (2S,4R)-5-(5′-Chloro-2′-fluorobiphenyl-4-yl)-4-[(1-ethoxy-1H-[1,2,3]triazole-4-carbonyl)-amino]-2-hydroxymethyl-2-methylpentanoic Acid] | ≤ 1 |
| C[C@@](CO)(C[C@@H](Cc1ccc(-c2ccccc2Cl)cc1)NC(=O)c1c[nH]nn1)C(=O)O [Example 2B, (2S,4R)-5-(2′-Chlorobiphenyl-4-yl)-2-hydroxymethyl-2-methyl-4-[(1H-[1,2,3]triazole-4-carbonyl)amino]pentanoic Acid] | ≤ 1 |
| CCOc1cc(C(=O)N[C@H](Cc2ccc(-c3cccc(Cl)c3)cc2)C[C@@](C)(CO)C(=O)O)n[nH]1 [Example 7A, (2S,4R)-5-(3′-Chlorobiphenyl-4-yl)-4-[(5-ethoxy-1H-pyrazole-3-carbonyl)amino]-2-hydroxymethyl-2-methylpentanoic Acid] | ≤ 1 |
| COC[C@](C)(C[C@@H](Cc1ccc(-c2ccccc2)cc1)NC(=O)c1c[nH]nn1)C(=O)O [Example 1J, (2S,4R)-5-Biphenyl-4-yl-2-methoxymethyl-2-methyl-4-[(1H-[1,2,3]triazole-4-carbonyl)amino]pentanoic Acid] | 1 to 3.16 |
| COC[C@](C)(C[C@@H](Cc1ccc(-c2cc(Cl)ccc2F)cc1)NC(=O)c1c[nH]nn1)C(=O)O [Example 2N, (2S,4R)-5-(5′-Chloro-2′-fluorobiphenyl-4-yl)-2-methoxymethyl-2-methyl-4-[(1H-[1,2,3]triazole-4-carbonyl)amino]pentanoic Acid] | ≤ 1 |
| COc1cc(C(=O)N[C@H](Cc2ccc(-c3cccc(Cl)c3)cc2)C[C@@](C)(CO)C(=O)O)on1 [Example 6A, (2S,4R)-5-(3′-Chlorobiphenyl-4-yl)-2-hydroxymethyl-4-[(3-methoxyisoxazole-5-carbonyl)amino]-2-methylpentanoic Acid] | ≤ 1 |
| COC[C@](C)(C[C@@H](Cc1ccc(-c2cccc(Cl)c2)cc1)NC(=O)c1cc(OC)no1)C(=O)O [Example 6B, (2S,4R)-5-(3′-Chlorobiphenyl-4-yl)-4-[(3-methoxyisoxazole-5-carbonyl)amino]-2-methoxymethyl-2-methylpentanoic Acid] | 10 to 100 |
| COc1cc(C(=O)N[C@H](Cc2ccc(-c3cc(Cl)ccc3F)cc2)C[C@@](C)(CO)C(=O)O)n[nH]1 [Example 7E, (2S,4R)-5-(5′-Chloro-2′-fluorobiphenyl-4-yl)-2-hydroxymethyl-4-[(5-methoxy-1H-pyrazole-3-carbonyl)amino]-2-methylpentanoic Acid] | ≤ 1 |
| CC(C)Cc1cc(C(=O)N[C@H](Cc2ccc(-c3cc(Cl)ccc3F)cc2)C[C@@](C)(CO)C(=O)O)[nH]n1 [Example 7F, (2S,4R)-5-(5′-Chloro-2′-fluorobiphenyl-4-yl)-2-hydroxymethyl-4-[(5-isobutyl-2H-pyrazole-3-carbonyl)amino]-2-methylpentanoic Acid] | ≤ 1 |
| C[C@@](COCCO)(C[C@@H](Cc1ccc(-c2cccc(Cl)c2)cc1)NC(=O)c1cc(O)no1)C(=O)O [Example 6L, (2S,4R)-5-(3′-Chlorobiphenyl-4-yl)-2-(2-hydroxyethoxymethyl)-4-[(3-hydroxyisoxazole-5-carbonyl)amino]-2-methylpentanoic Acid] | ≤ 1 |
| CCCc1cc(C(=O)N[C@H](Cc2ccc(-c3cc(Cl)ccc3F)cc2)C[C@@](C)(CO)C(=O)O)on1 [Example 6J, (2S,4R)-5-(5′-Chloro-2′-fluorobiphenyl-4-yl)-2-hydroxymethyl-2-methyl-4-[(3-propylisoxazole-5-carbonyl)amino]pentanoic Acid] | ≤ 1 |
| CCOC[C@](C)(C[C@@H](Cc1ccc(-c2cc(Cl)ccc2F)cc1)NC(=O)c1cc(C(C)=O)[nH]n1)C(=O)O [Example 8C, (2S,4R)-4-[(5-Acetyl-1H-pyrazole-3-carbonyl)amino]-5-(5′-chloro-2′-fluorobiphenyl-4-yl)-2-ethoxymethyl-2-methylpentanoic Acid] | ≤ 1 |
| C[C@@](CO)(C[C@@H](Cc1ccc(-c2ccccc2)cc1)NC(=O)c1cnn[nH]1)C(=O)O [(2S,4R)-5-biphenyl-4-yl-2-hydroxymethyl-2-methyl-4-[(3H-[1,2,3]triazole-4-carbonyl)amino]-pentanoic acid, reference compound] | ≤ 1 |
| CCOC[C@](C)(C[C@@H](Cc1ccc(-c2cccc(Cl)c2)cc1)NC(=O)c1cc(O)no1)C(=O)O [Example 6M] | ≤ 1 |
| C[C@@](CO)(C[C@@H](Cc1ccc(-c2cc(Cl)ccc2F)cc1)NC(=O)c1c[nH]nn1)C(=O)O [Example 2E, (2S,4R)-5-(5′-Chloro-2′-fluorobiphenyl-4-yl)-2-hydroxymethyl-2-methyl-4-[(1H-[1,2,3]triazole-4-carbonyl)amino]pentanoic Acid] | 1 to 3.16 |
| COn1cc(C(=O)N[C@H](Cc2ccc(-c3cc(Cl)ccc3F)cc2)C[C@@](C)(CO)C(=O)O)nn1 [Example 4B, (2S,4R)-5-(5′-Chloro-2′-fluorobiphenyl-4-yl)-2-hydroxymethyl-4-[(1-methoxy-1H-[1.2.3]triazole-4-carbonyl)amino]-2-methylpentanoic Acid] | ≤ 1 |
| CC(C)C(=O)OC[C@](C)(C[C@@H](Cc1ccc(-c2ccccc2)cc1)NC(=O)c1cnn[nH]1)C(=O)O [Example 1E, (2S,4R)-5-Biphenyl-4-yl-2-isobutyryloxymethyl-2-methyl-4-[(3H-[1,2,3]triazole-4-carbonyl)amino]pentanoic Acid] | ≤ 1 |
| CCOC[C@](C)(C[C@@H](Cc1ccc(-c2cc(Cl)ccc2F)cc1)NC(=O)c1c[nH]nn1)C(=O)O [Example 2O, (2S,4R)-5-(5′-Chloro-2′-fluoro-biphenyl-4-yl)-2-ethoxymethyl-2-methyl-4-[(1H-[1,2,3]triazole-4-carbonyl)amino]pentanoic Acid] | ≤ 1 |
| C[C@@](COCCO)(C[C@@H](Cc1ccc(-c2cccc(Cl)c2)cc1)NC(=O)c1c[nH]nn1)C(=O)O [Example 2L, (2S,4R)-5-(3′-Chlorobiphenyl-4-yl)-2-(2-hydroxyethoxymethyl)-2-methyl-4-[(1H-[1,2,3]triazole-4-carbonyl)amino]pentanoic Acid] | ≤ 1 |
